# Reference: patent US11607422B2, “Uttroside B and derivatives thereof as therapeutics for hepatocellular carcinoma” (Rajiv Gandhi Centre for Biotechnology, an Autonomous …, priority 2016, dated 2023)
# Tests used:
# HepG2 xenograft tumors = experiment: HepG2-xenograft model in NOD-SCID mice; type: in vivo
# Procedure: Our next attempt was to validate the anticancer potential of Uttroside B against hepatic cancer, using an in vivo HepG2-xenograft model in NOD-SCID mice. The HepG2 cells suspended in matrigel were subcutaneously injected in the flank region of the mice. The study has been schematically represented in FIG. 6A. Uttroside B, dissolved in PBS, was administered after 15 days of tumor cell implantation when the tumor attained a size of 50-100 mm^3 approximately. Uttroside B (10 mg/kg bw) was injected intraperitoneally, thrice weekly for four weeks. […] The size of the tumor was measured using Vernier calipers every week and the corresponding tumor volume was calculated. […] However, upon sacrifice, very small tumors were observed beneath the skin of animals treated with Uttroside B too, though the size was drastically less compared to that of control animals [FIG. 6B-6C]. […] Although this study was in a mouse the skilled artisan knows that that dose may be converted to human equivalent dosage by simple math. For example the 10 mg/kg body weight for a mouse would convert to a 0.8 mg/kg body weight for a human and result in a range from 0.05 to 1.2 mg/kg body weight.
# In vivoHepG2-Xenograft model: All animal studies were performed in accordance with the protocols approved by Institute Animal Ethical Committee IAEC No: 151(b)/RUBY/2012. An ectopic xenograft model in NOD-SCID (NOD.CB17-Prkdcscid/J) mice was used for evaluating the anti-cancer properties of Uttroside B. The animals required for this study were obtained from Animal Research Facility of Rajiv Gandhi Centre for Biotechnology and were fed with standard food pellets and autoclaved water ad libitum. Animal handling, tumor induction, drug treatment and tissue collection were performed in sterile conditions.
# Evaluation of the anticancer activity of Uttroside B, isolated from S. nigrum in human liver cancer (HepG2)-xenograft model: xenografts models were established in NOD-SCID mice as described in literature.^10 Male NOD-SCID (NOD.CB17-Prkdc^scid/J) mice of age 6-8 weeks were used for the study. Tumors were induced by subcutaneous injection of HepG2 cells (7×10^6 cells in 100 μL matrigel) in the lower right or left flank of mice and were allowed to grow for a period of two weeks to attain a size of approximately 50-100 mm^3 as measured by Vernier calipers. The mice were then randomly grouped into control and treatment group of 9 animals each. The treatment groups were injected intraperitoneally with Uttroside B (10 mg/kg doses thrice weekly) for one month. Tumor volume was measured every seven days to evaluate tumor growth and drug response. The animals were sacrificed at the end of the study and tumor samples were collected for histopathological and immunohistochemical analysis.
# Histopathology: The tissue cryo-sections were washed with PBS (5 min, 2 times) and distilled water for 5 min. Then the sections were stained with hematoxylin for 2 min. Excess stain was washed off and the slides were dipped in differentiation solution for 1-2 s. They were then kept in tap water for 10 min and 70% Isopropyl alcohol for 5 min respectively and were counter stained with eosin solution for 1 min. The sections were then transferred to 100% Isopropyl alcohol and kept for 2 min, cleared in xylene for 1 h and were mounted using DPX. Stained sections were observed using a light microscope and were photographed. The pathology of liver and tumor tissue sections were examined and verified by Dr. Sankar Sundaram, Professor of Pathology, Medical College, Thiruvananthapuram.
# Immunohistochemistry of xenograft tissue sections: Immunohistochemical analysis of various proteins in the xenograft tumor tissue sections was performed using the detection kit, as per manufacturer's protocol Super Sensitive™ Polymer-HRP IHC Detection System (Biogenex, Calif., USA). Paraformaldehyde-fixed OCT-embedded tissue sections were kept in PBS for 15 min. […]
# [1] = test system: autophagy related proteins in Hep3B cells; experiment: Western blot of autophagy related proteins in Hep3B cells; type: cell-based; settings: time dependent
# Procedure: Western blot analysis. Approximately 0.5×10^6 cells were grown on 60 mm culture plates and exposed to drugs as indicated for the desired time. The cells were then scraped out, washed in ice cold 1× PBS and pelleted down at 13000 rpm for 2 min. The pelleted cells were suspended in 150 μL of ice-cold whole cell lysis buffer[(20 mMTris of pH 7.4, 250 mM NaCl, 2 mM EDTA, 0.1% Triton, 1 mM DTT (1,4-dithiothreitol), 0.5 mM PMSF, 4 mM sodium orthovanadate, aprotinin (5 mg m/L) and leupeptin (5 mg m/L)] and kept in ice for 30 min, with intermittent vortexing every 5 min. After incubation, the lysate was centrifuged at 13000 rpm for 10 min at 4° C. and the supernatant was collected. The total protein content in the lysate was estimated by Bradford's method, and was then denatured by boiling with 5× loading dye before separating the proteins by SDSpolyacrylamidegel electrophoresis (SDS-PAGE). […]
# [2] = 10 mg/kg bw i.p. thrice weekly, four weeks
smiles,measurement,setting,value
C[C@H](CC[C@@]1(O)O[C@H]2C[C@H]3[C@@H]4CC[C@H]5C[C@@H](O[C@@H]6O[C@H](CO)[C@H](O[C@@H]7O[C@H](CO)[C@@H](O)[C@H](O[C@@H]8OC[C@@H](O)[C@H](O)[C@H]8O)[C@H]7O[C@@H]7O[C@H](CO)[C@@H](O)[C@H](O)[C@H]7O)[C@H](O)[C@H]6O)CC[C@]5(C)[C@H]4CC[C@]3(C)[C@H]2[C@@H]1C)CO[C@@H]1O[C@H](CO)[C@@H](O)[C@H](O)[C@H]1O [Uttroside B],cleaved PARP expression in tumor sections (IHC),HepG2 xenograft tumors; [2],Significant upregulation in the expression of cleaved PARP
same,externally visible tumor at end of treatment,HepG2 xenograft tumors; [2],no tumor was visible externally
same,histopathology (H&E) of tumor mass,HepG2 xenograft tumors; [2],massive destruction of cells
same,tumor volume vs control,HepG2 xenograft tumors; [2],significantly low
same,tissue level expression of LC3 (IHC),HepG2 xenograft tumors; HepG2 xenograft tumor sections,very high
same,tissue level expression of beclin-1 (IHC),HepG2 xenograft tumors; HepG2 xenograft tumor sections,very high
same,phosphorylation status of p70S6K and 4E-BP-1 in xenograft tumor tissue,"HepG2 xenograft tumors; immunohistochemical staining, NOD-SCID mice",significant down-regulation in the phosphorylation status
same,"expression of autophagy related proteins, Hep3B",[1],"induced Atg5, Atg7 and LC3 in a time dependent manner"
